Reference: ChEMBL document CHEMBL3885881, “DrugMatrix”

Species: Rattus norvegicus
Test: DrugMatrix - Regimen: Daily Repeat
Assay type: toxicity, organism-based, Sprague-Dawley
Design: regimen Daily Repeat, gender Male, age 6-8 weeks
Details: in vivo, po, route oral GAVAGE, […]; for ABSOLUTE BASOPHIL / ABSOLUTE EOSINOPHIL / ABSOLUTE LYMPHOCYTE / ABSOLUTE MONOCYTE / ABSOLUTE SEGMENTED NEUTROPHIL / BASOPHIL / EOSINOPHIL / ERYTHROCYTE COUNT / HEMATOCRIT / HEMOGLOBIN / LEUKOCYTE COUNT / LYMPHOCYTE / MEAN CORPUSCULAR HEMOGLOBIN / MEAN CORPUSCULAR HEMOGLOBIN CONCENTRATION / MEAN CORPUSCULAR VOLUME / MONOCYTE / NEUTROPHIL / NUCLEATED RED BLOOD CELLS / PLATELET COUNT: tissue Blood; for ALANINE AMINOTRANSFERASE / ALBUMIN / ALKALINE PHOSPHATASE / ASPARTATE AMINOTRANSFERASE / BLOOD UREA NITROGEN / CARBON DIOXIDE / CHLORIDE / CHOLESTEROL / CREATINE PHOSPHOKINASE / CREATININE / GLUCOSE / LACTATE DEHYDROGENASE / LIPASE / PHOSPHORUS / POTASSIUM / SODIUM / TOTAL BILIRUBIN / TOTAL PROTEIN / URIC ACID: tissue Plasma
[1] = 10 mg/kg, 72 h, dose level Low, time 3 day
[2] = 10 mg/kg, 120 h, dose level Low, time 5 day
[3] = 75 mg/kg, 72 h, dose level High, time 3 day
[4] = 75 mg/kg, 120 h, dose level High, time 5 day

SMILES: NC(=O)N1C(=O)/C(=C(\O)c2cccs2)c2cc(Cl)ccc21 [TENIDAP]
- ABSOLUTE BASOPHIL [1]: 0 CELLS/uL
- ABSOLUTE EOSINOPHIL [1]: 204 CELLS/uL
- ABSOLUTE LYMPHOCYTE [1]: 13523 CELLS/uL
- ABSOLUTE MONOCYTE [1]: 155.33 CELLS/uL
- ABSOLUTE SEGMENTED NEUTROPHIL [1]: 1651 CELLS/uL
- BASOPHIL [1]: 0%
- EOSINOPHIL [1]: 1.33%
- ERYTHROCYTE COUNT [1]: 5.32 x10E6/uL
- HEMATOCRIT [1]: 33.53%
- HEMOGLOBIN [1]: 13.33 G/DL
- LEUKOCYTE COUNT [1]: 15.53 x10E3/uL
- LYMPHOCYTE [1]: 86.67%
- MEAN CORPUSCULAR HEMOGLOBIN [1]: 25.03 pg
- MEAN CORPUSCULAR HEMOGLOBIN CONCENTRATION [1]: 39.73 G/DL
- MEAN CORPUSCULAR VOLUME [1]: 62.97 fL
- MONOCYTE [1]: 1%
- NEUTROPHIL [1]: 11%
- NUCLEATED RED BLOOD CELLS [1]: 0 /100WBC
- PLATELET COUNT [1]: 1066.67 x10E3/uL
- ALANINE AMINOTRANSFERASE [1]: 83.33 u/L
- ALBUMIN [1]: 3.87 G/DL
- ALKALINE PHOSPHATASE [1]: 429.33 u/L
- ASPARTATE AMINOTRANSFERASE [1]: 109.67 u/L
- BLOOD UREA NITROGEN [1]: 11 mg/dL
- CARBON DIOXIDE [1]: 23.67 mmol/L
- CHLORIDE [1]: 102.67 MEQ/L
- CHOLESTEROL [1]: 63.67 mg/dL
- CREATINE PHOSPHOKINASE [1]: 779.67 u/L
- CREATININE [1]: 0.2 mg/dL
- GLUCOSE [1]: 169 mg/dL
- LACTATE DEHYDROGENASE [1]: 223.67 u/L
- LIPASE [1]: 12 u/L
- PHOSPHORUS [1]: 11.47 mg/dL
- POTASSIUM [1]: 5.98 MEQ/L
- SODIUM [1]: 143.97 MEQ/L
- TOTAL BILIRUBIN [1]: 0.17 mg/dL
- TOTAL PROTEIN [1]: 5.27 G/DL
- URIC ACID [1]: 1.43 mg/dL
- ABSOLUTE BASOPHIL [2]: 0 CELLS/uL
- ABSOLUTE EOSINOPHIL [2]: 83.67 CELLS/uL
- ABSOLUTE LYMPHOCYTE [2]: 10624.67 CELLS/uL
- ABSOLUTE MONOCYTE [2]: 83.67 CELLS/uL
- ABSOLUTE SEGMENTED NEUTROPHIL [2]: 1674.67 CELLS/uL
- BASOPHIL [2]: 0%
- EOSINOPHIL [2]: 0.67%
- ERYTHROCYTE COUNT [2]: 5.4 x10E6/uL
- HEMATOCRIT [2]: 33.6%
- HEMOGLOBIN [2]: 13.33 G/DL
- LEUKOCYTE COUNT [2]: 12.47 x10E3/uL
- LYMPHOCYTE [2]: 85.33%
- MEAN CORPUSCULAR HEMOGLOBIN [2]: 24.7 pg
- MEAN CORPUSCULAR HEMOGLOBIN CONCENTRATION [2]: 39.67 G/DL
- MEAN CORPUSCULAR VOLUME [2]: 62.27 fL
- MONOCYTE [2]: 0.67%
- NEUTROPHIL [2]: 13.33%
- NUCLEATED RED BLOOD CELLS [2]: 0 /100WBC
- PLATELET COUNT [2]: 1241 x10E3/uL
- ALANINE AMINOTRANSFERASE [2]: 56.33 u/L
- ALBUMIN [2]: 4.13 G/DL
- ALKALINE PHOSPHATASE [2]: 448.67 u/L
- ASPARTATE AMINOTRANSFERASE [2]: 103.33 u/L
- BLOOD UREA NITROGEN [2]: 13 mg/dL
- CARBON DIOXIDE [2]: 33.67 mmol/L
- CHLORIDE [2]: 100.33 MEQ/L
- CHOLESTEROL [2]: 58.33 mg/dL
- CREATINE PHOSPHOKINASE [2]: 442.67 u/L
- CREATININE [2]: 0.21 mg/dL
- GLUCOSE [2]: 155 mg/dL
- LACTATE DEHYDROGENASE [2]: 736.33 u/L
- LIPASE [2]: 11 u/L
- PHOSPHORUS [2]: 11.1 mg/dL
- POTASSIUM [2]: 6.31 MEQ/L
- SODIUM [2]: 144.37 MEQ/L
- TOTAL BILIRUBIN [2]: 0.17 mg/dL
- TOTAL PROTEIN [2]: 5.93 G/DL
- URIC ACID [2]: 1.33 mg/dL
- ABSOLUTE BASOPHIL [3]: 0 CELLS/uL
- ABSOLUTE EOSINOPHIL [3]: 72 CELLS/uL
- ABSOLUTE LYMPHOCYTE [3]: 18447.67 CELLS/uL
- ABSOLUTE MONOCYTE [3]: 586.33 CELLS/uL
- ABSOLUTE SEGMENTED NEUTROPHIL [3]: 3327.33 CELLS/uL
- BASOPHIL [3]: 0%
- EOSINOPHIL [3]: 0.33%
- ERYTHROCYTE COUNT [3]: 5.15 x10E6/uL
- HEMATOCRIT [3]: 32.13%
- HEMOGLOBIN [3]: 13.03 G/DL
- LEUKOCYTE COUNT [3]: 22.43 x10E3/uL
- LYMPHOCYTE [3]: 82%
- MEAN CORPUSCULAR HEMOGLOBIN [3]: 25.3 pg
- MEAN CORPUSCULAR HEMOGLOBIN CONCENTRATION [3]: 40.63 G/DL
- MEAN CORPUSCULAR VOLUME [3]: 62.33 fL
- MONOCYTE [3]: 2.67%
- NEUTROPHIL [3]: 15%
- NUCLEATED RED BLOOD CELLS [3]: 0 /100WBC
- PLATELET COUNT [3]: 1275.33 x10E3/uL
- ALANINE AMINOTRANSFERASE [3]: 41.67 u/L
- ALBUMIN [3]: 3.37 G/DL
- ALKALINE PHOSPHATASE [3]: 301 u/L
- ASPARTATE AMINOTRANSFERASE [3]: 107.33 u/L
- BLOOD UREA NITROGEN [3]: 11.33 mg/dL
- CARBON DIOXIDE [3]: 22.33 mmol/L
- CHLORIDE [3]: 100.33 MEQ/L
- CHOLESTEROL [3]: 64.67 mg/dL
- CREATINE PHOSPHOKINASE [3]: 1284.33 u/L
- CREATININE [3]: 0.21 mg/dL
- GLUCOSE [3]: 168.67 mg/dL
- LACTATE DEHYDROGENASE [3]: 492.67 u/L
- LIPASE [3]: 10 u/L
- PHOSPHORUS [3]: 11.63 mg/dL
- POTASSIUM [3]: 6.52 MEQ/L
- SODIUM [3]: 144.2 MEQ/L
- TOTAL BILIRUBIN [3]: 0.13 mg/dL
- TOTAL PROTEIN [3]: 5.17 G/DL
- URIC ACID [3]: 2.97 mg/dL
- ABSOLUTE BASOPHIL [4]: 0 CELLS/uL
- ABSOLUTE EOSINOPHIL [4]: 26.67 CELLS/uL
- ABSOLUTE LYMPHOCYTE [4]: 9823.33 CELLS/uL
- ABSOLUTE MONOCYTE [4]: 49.33 CELLS/uL
- ABSOLUTE SEGMENTED NEUTROPHIL [4]: 1634 CELLS/uL
- BASOPHIL [4]: 0%
- EOSINOPHIL [4]: 0.33%
- ERYTHROCYTE COUNT [4]: 4.78 x10E6/uL
- HEMATOCRIT [4]: 30.53%
- HEMOGLOBIN [4]: 12.13 G/DL
- LEUKOCYTE COUNT [4]: 11.53 x10E3/uL
- LYMPHOCYTE [4]: 87.67%
- MEAN CORPUSCULAR HEMOGLOBIN [4]: 25.37 pg
- MEAN CORPUSCULAR HEMOGLOBIN CONCENTRATION [4]: 39.73 G/DL
- MEAN CORPUSCULAR VOLUME [4]: 63.83 fL
- MONOCYTE [4]: 0.67%
- NEUTROPHIL [4]: 11.33%
- NUCLEATED RED BLOOD CELLS [4]: 0.33 /100WBC
- PLATELET COUNT [4]: 1185.67 x10E3/uL
- ALANINE AMINOTRANSFERASE [4]: 35.67 u/L
- ALBUMIN [4]: 3.53 G/DL
- ALKALINE PHOSPHATASE [4]: 211 u/L
- ASPARTATE AMINOTRANSFERASE [4]: 95 u/L
- BLOOD UREA NITROGEN [4]: 13.67 mg/dL
- CARBON DIOXIDE [4]: 33 mmol/L
- CHLORIDE [4]: 103.33 MEQ/L
- CHOLESTEROL [4]: 68 mg/dL
- CREATINE PHOSPHOKINASE [4]: 655 u/L
- CREATININE [4]: 0.26 mg/dL
- GLUCOSE [4]: 158 mg/dL
- LACTATE DEHYDROGENASE [4]: 243 u/L
- LIPASE [4]: 11 u/L
- PHOSPHORUS [4]: 9.87 mg/dL
- POTASSIUM [4]: 4.94 MEQ/L
- SODIUM [4]: 147 MEQ/L
- TOTAL BILIRUBIN [4]: 0.2 mg/dL
- TOTAL PROTEIN [4]: 5.43 G/DL
- URIC ACID [4]: 1.03 mg/dL
